Data on eight compounds can be found in ChEMBL document CHEMBL1139637, “Synthesis, X-ray crystallographic analysis, and antitumor activity of 1-acyl-3,6-disubstituted phenyl-1,4-dihydro-1,2,4,5-tetrazines” (2005).

The structures appear in SMILES notation.

For assay [1], the system named is A549. Description: Inhibition ratio against the growth of A-549 cells at 10e-4 mol/L concentration determined by SRB method. The class given is functional, Homo sapiens.
Assay [2] concerns A549. Description: Inhibition ratio against the growth of A-549 cells at 10e-5 mol/L concentration determined by SRB method. In kind it is functional, Homo sapiens.
The subject of assay [3] is A549. Description: Inhibition ratio against the growth of A-549 cells at 10e-6 mol/L concentration determined by SRB method. The class given is functional, Homo sapiens.
Assay [4] deals with A549. Description: Inhibition ratio against the growth of A-549 cells at 10e-7 mol/L concentration determined by SRB method. The class given is functional, Homo sapiens.
Assay [5] relates to A549. Description: Inhibition ratio against the growth of A-549 cells at 10e-8 mol/L concentration determined by SRB method. The class given is functional, Homo sapiens.
Assay [6] concerns P388. Briefly: Inhibition ratio against the growth of P-388 cells at 10e-4 mol/L concentration determined by MTT method. In kind it is functional, Mus musculus.
Assay [7] has as its system P388. Description: Inhibition ratio against the growth of P-388 cells at 10e-5 mol/L concentration determined by MTT method. The class given is functional, Mus musculus.
The test system of assay [8] is P388. Briefly: Inhibition ratio against the growth of P-388 cells at 10e-6 mol/L concentration determined by MTT method. In kind it is functional, Mus musculus.
Assay [9] concerns P388. Briefly: Inhibition ratio against the growth of P-388 cells at 10e-7 mol/L concentration determined by MTT method. The class given is functional, Mus musculus.
Assay [10] relates to P388. Briefly: Inhibition ratio against the growth of P-388 cells at 10e-8 mol/L concentration determined by MTT method. In kind it is functional, Mus musculus.

For `CC(C)C(=O)N1N=C(c2ccccc2)NN=C1c1ccccc1`, the Inhibition ratio stood at 83.8 in [1]; 46.6 in assay [2]; 38.7 in [3]; 29.6 in assay [4]; 29.5 in [5]; 82.5 in [6]. The Inhibition ratio in assay [7] was 61.1; in assay [8], 52; in assay [9], 24.9; in assay [10], 46.9.
Turning to `CC(=O)N1N=C(c2ccc(C(F)(F)F)cc2)NN=C1c1ccc(C(F)(F)F)cc1`, the Inhibition ratio is recorded as 91.1 in assay [1]; 63.6 in assay [2]; 0 in assay [3]; 0 in assay [4]; 0 in assay [5]; 50.6 in assay [6]. The Inhibition ratio in assay [7] was found to be 21.5; in [8], 1.1; in assay [9], 5; in [10], 0.
Consider `O=C(CCl)N1N=C(c2ccccc2)NN=C1c1ccccc1`, for which the Inhibition ratio in assay [1] is 95.4; in [2], 95.8; in assay [3] it was 35.3; in assay [4] it was 4.1; in [5], 13; in assay [6], 99.1. Further, the Inhibition ratio in assay [7] is 100; in assay [8] it was 3.9; in [9] it was 3.6; in [10] it was 0.
Turning to `CC(=O)N1N=C(c2ccccc2)NN=C1c1ccccc1`, the Inhibition ratio in [1] is recorded as 85.1; in assay [2] it was 0; in assay [3] it was 0; in assay [4] it was 0; in [5], 0; in assay [6] it was 62.7. The Inhibition ratio in [7] was found to be 10.9; in assay [8], 6.6; in assay [9], 5.5; in assay [10], 9.2.
On to `CC(C)C(=O)N1N=C(c2ccc(C(F)(F)F)cc2)NN=C1c1ccc(C(F)(F)F)cc1`, for which the Inhibition ratio in [1] is 79.8; in assay [2], 21; in assay [3], 0; in [4], 0; in assay [5] it was 0; in [6], 42.2. In addition, the Inhibition ratio in assay [7] came out at 26.9; in assay [8], 15; in assay [9], 16.2; in assay [10], 13.4.
Consider `CCC(=O)N1N=C(c2ccccc2)NN=C1c1ccccc1`, for which the Inhibition ratio in assay [1] turned out to be 71.5; in assay [2], 11.1; in assay [3], 6.2; in assay [4] it was 12.3; in assay [5] it was 0; in assay [6], 30.9. Moreover, the Inhibition ratio worked out at 9.8 in [7], 7.6 in assay [8], 7.7 in assay [9] and 8.5 in assay [10].
Regarding `O=C(CCl)N1N=C(c2ccc(C(F)(F)F)cc2)NN=C1c1ccc(C(F)(F)F)cc1`, the Inhibition ratio in assay [1] was determined as 95.5; in assay [2], 64.6; in assay [3], 0; in assay [4], 0; in [5], 0; in [6], 98.4. Further, the Inhibition ratio is recorded as 49.4 in assay [7], 2.2 in assay [8], 11.3 in assay [9] and 0 in assay [10].
As for `CCC(=O)N1N=C(c2ccc(C(F)(F)F)cc2)NN=C1c1ccc(C(F)(F)F)cc1`, the Inhibition ratio in [1] turned out to be 84.7; in assay [2], 48.1; in assay [3] it was 21.7; in assay [4], 0; in assay [5] it was 9; in assay [6], 68. Besides, the Inhibition ratio in [7] is 21.1; in assay [8], 6.7; in assay [9], 6.3; in assay [10], 0.
